Assay [1] relates to Carrageenin Oedema. Nature of the assay: Carrageenin Oedema in Rat (% protection of paw oedema). Type of assay: in vivo, rat (S.D. male). The note with it: subcutaneous; for % Protection 2nd hour: 2nd hour after carrageenin; for % Protection 4th hour: 4th hour after carrageenin; for % Protection 6th hour: 6th hour after carrageenin. The protocol: Carrageenin Oedema in Rat
Carrageenin+Ibuprofen (11 and 5.5 mg/kg)
Carrageenin+compound of example 8 (Br-Ax) (25.0 and 12.5 mg/kg)
Carrageenin+compound of example 7 (Br-Ab) (25.0 and 12.5 mg/kg)
Note: Ibuprofen doses are equimolar to the corresponding Br-Ab and Br-Ax doses.
S.D. male rats weighing 160-180 g
1) Control - (Carrageenin only)
Each group consisted of 5 males, trying to obtain the most homogeneous total weight for each group. The animals were inoculated subcutaneously with the test solutions homogenized in 5% gum Arabic which had been sterilized by filtration with "Acrodisc" Gelman with […] pores.
After 1 hour the animals were […] 0.1 ml of 1% carrageenin in sterile saline. Carrageenin was kept under stirring by means of a magnetic stirred, to make it as homogeneous as possible.
At the same time, the basal paw volumes were determined by means of a plethysmograph, so as to make possible to repeat the measurements in the most reliable way in the subsequent hours.
2 Hours after carrageenin inoculation, the measure of paw volumes was determined (2nd hour). Subsequently, said measurement was effected at the 4th and 6th hours from inoculation. After that, the % protection was calculated by means of the following formula: [formula]

The subject of assay [2] is bone calcium loss induced by retinoid. Nature of the assay: Bone calcium loss induced by retinoid in thyroparathyroidectomized rat (plasma Ca). Type of assay: in vivo, rat (male). The settings on record: thyroparathyroidectomized rats, retinoid s.c. 3 days, 24 hours after last administration; for Plasmatic Ca increase after retinoid adm.: controls 1.11 ± 0.03; for % inhibition (of plasmatic Ca increase after retinoid): versus controls. The procedure:
Male rats weighing about […] are thyroparathyroidectomyzed under Nembutal anaesthesia. The animals are treated with thyroxine on alternate days during all the test. 7 Days after surgery, blood is withdrawn by means of intracardiac puncture and Ca is determined on plasma. […] 24 Hours after the last administration, animals are killed and blood is recovered to determine Ca again.
BONE CALCIUM LOSS INDUCED BY RETINOID IN RAT

On to `CC(C)Cc1ccc(C(C)C(=O)NCCCC(O)(P(=O)(O)O)P(=O)(O)O)cc1` (stereo not shown) [Br--Ab, [4-[2-(4-Isobutylphenyl)-propionyl]-amino-1-hydroxybutylidene]-diphosphonicacid], for which, in assay [1] (12.5 mg/kg), the “% Protection 2nd hour” value was 31%, the “% Protection 4th hour” value was 28% and the “% Protection 6th hour” value is 30%. In assay [1] (25.0 mg/kg), the “% Protection 2nd hour” value worked out at 68%, the “% Protection 4th hour” value is given as 57% and the “% Protection 6th hour” value was found to be 38%. Besides, in assay [2], the “Plasmatic Ca increase after retinoid adm.” value is 0.62 ± 0.03 mmol/lt and the “% inhibition (of plasmatic Ca increase after retinoid)” value is on record as 44.1%.
Regarding `CC(C)Cc1ccc(C(C)C(=O)NCCCCCC(O)(P(=O)(O)O)P(=O)(O)O)cc1` (stereo not shown) [Br--Ax, [6-[2-(4-Isobutylphenyl)-propionyl]-amino-1-hydroxyhexylidene]-diphosphonicacid], in assay [1] (12.5 mg/kg), the “% Protection 2nd hour” value turned out to be 41%, the “% Protection 4th hour” value was determined as 36% and the “% Protection 6th hour” value is 48%. In addition, in assay [1] (25.0 mg/kg), the “% Protection 2nd hour” value is 42%, the “% Protection 4th hour” value was found to be 21% and the “% Protection 6th hour” value worked out at 56%. Besides, in assay [2], the “Plasmatic Ca increase after retinoid adm.” value is recorded as 0.75 ± 0.17 mmol/lt and the “% inhibition (of plasmatic Ca increase after retinoid)” value turned out to be 32.4%.
For `CC(C)Cc1ccc(C(C)C(=O)O)cc1` (stereo not shown) [Ibuprofen, ibuprofen, reference compound], in assay [1] (5.5 mg/kg), the “% Protection 2nd hour” value was found to be 18%, the “% Protection 4th hour” value stood at 3% and the “% Protection 6th hour” value is 4%. Also, in assay [1] (11.0 mg/kg), the “% Protection 2nd hour” value is on record as 21%, the “% Protection 4th hour” value turned out to be 25% and the “% Protection 6th hour” value is listed as 28%.

Source of the values: US5466682A, “Acylamino-alkyliden-hydroxy-bisphosphonic acids esters and salts thereof, wherein the acyl group is derived from an acid having antiinflammatory activity” (Istituto Gentili S.p.A., priority 1991, dated 1995).
